Experimental data taken from ChEMBL document CHEMBL3259781 (J Med Chem, 2014).
Values belong to the compound of their own block, whether it stands above or below them.

What was measured:
[1] = species: Homo sapiens; assay: Selectivity ratio of Ki for human recombinant adenosine A1 receptor to Ki for human recombinant adenosine receptor A2a
[2] = biological target: T1, Adenosine receptor A1 (Homo sapiens, UniProt P30542)
T1 sequence (P30542 whole entry): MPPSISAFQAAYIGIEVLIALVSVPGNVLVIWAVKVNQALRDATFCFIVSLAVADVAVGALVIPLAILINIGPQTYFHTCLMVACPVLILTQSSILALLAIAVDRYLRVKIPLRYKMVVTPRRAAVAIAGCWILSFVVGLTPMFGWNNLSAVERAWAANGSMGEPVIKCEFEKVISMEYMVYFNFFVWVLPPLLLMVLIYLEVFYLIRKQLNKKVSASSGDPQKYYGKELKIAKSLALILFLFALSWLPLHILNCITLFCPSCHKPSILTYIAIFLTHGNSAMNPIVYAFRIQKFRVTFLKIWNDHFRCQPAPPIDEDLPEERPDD

[3] = biological target: T2, Adenosine receptor A3 (Homo sapiens, UniProt P0DMS8)
T2 sequence (P0DMS8 whole entry): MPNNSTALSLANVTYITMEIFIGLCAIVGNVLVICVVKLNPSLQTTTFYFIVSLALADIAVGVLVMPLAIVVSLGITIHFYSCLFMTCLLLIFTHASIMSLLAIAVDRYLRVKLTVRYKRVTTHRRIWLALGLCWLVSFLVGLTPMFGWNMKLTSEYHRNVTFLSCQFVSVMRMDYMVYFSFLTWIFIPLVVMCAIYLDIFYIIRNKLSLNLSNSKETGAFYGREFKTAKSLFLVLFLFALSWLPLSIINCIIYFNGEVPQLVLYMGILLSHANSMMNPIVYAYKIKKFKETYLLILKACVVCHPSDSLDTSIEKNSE

[4] = test system: Mus musculus; assay: Anticataleptic activity in mouse assessed as inhibition of CGS21680-induced catalepsy at 10 mg/kg, po; format: functional
[5] = biological target: T3, Adenosine receptor A2b (Homo sapiens, UniProt P29275)
T3 sequence (P29275 whole entry): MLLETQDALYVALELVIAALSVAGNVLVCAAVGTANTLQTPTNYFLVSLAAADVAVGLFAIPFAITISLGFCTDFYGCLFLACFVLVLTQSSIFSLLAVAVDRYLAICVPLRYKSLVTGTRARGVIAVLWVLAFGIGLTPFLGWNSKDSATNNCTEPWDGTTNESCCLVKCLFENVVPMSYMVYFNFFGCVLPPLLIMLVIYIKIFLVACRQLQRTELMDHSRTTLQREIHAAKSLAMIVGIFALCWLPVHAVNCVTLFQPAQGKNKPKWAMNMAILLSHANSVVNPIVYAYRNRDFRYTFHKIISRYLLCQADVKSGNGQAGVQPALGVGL

[6] = biological target: T1, Adenosine receptor A1; remark: listed apart in the source
[7] = species: Rattus norvegicus; assay: Anticataleptic activity in rat assessed as minimum efficacious dose; format: functional; conditions: read-out: MED
[8] = test system: Rattus norvegicus; assay: Anticataleptic activity in rat assessed as inhibition at 3 mg/kg, po after 1 hr; format: functional
[9] = test system: Rattus norvegicus; assay: Anticataleptic activity in rat assessed as inhibition at 3 mg/kg, po after 4 hrs; format: functional
[10] = biological target: T4, Adenosine receptor A2a (Rattus norvegicus, UniProt P30543)
[11] = biological target: T2, Adenosine receptor A3; assay: Binding affinity to human recombinant adenosine A3 receptor
[12] = biological target: T5, Adenosine receptor A2a (Homo sapiens, UniProt P29274); assay: Inhibition of human recombinant adenosine receptor A2a at 10 nM
[13] = biological target: T5, Adenosine receptor A2a; assay: Inhibition of human recombinant adenosine receptor A2a at 100 nM
[14] = biological target: T6, Adenosine receptor A2b (Homo sapiens) (UniProt P29275); assay: Inhibition of human recombinant adenosine receptor A2b at 1 uM
T6 sequence (whole entry): T3 sequence (P29275 whole entry)

[15] = biological target: T6, Adenosine receptor A2b (Homo sapiens); assay: Inhibition of human recombinant adenosine receptor A2b at 10 uM
[16] = biological target: T7, Adenosine receptor A1 (Homo sapiens) (UniProt P30542); assay: Inhibition of human recombinant adenosine A1 receptor at 1 uM
T7 sequence (whole entry): T1 sequence (P30542 whole entry)

[17] = biological target: T7, Adenosine receptor A1 (Homo sapiens); assay: Inhibition of human recombinant adenosine A1 receptor at 10 uM
[18] = biological target: T4, Adenosine receptor A2a; assay: Binding affinity to rat recombinant adenosine receptor A2a
[19] = test system: Mus musculus; assay: Anticataleptic activity in po dosed mouse assessed as inhibition of haloperidol-induced catalepsy; format: functional
[20] = biological target: T5, Adenosine receptor A2a
[21] = species: Rattus norvegicus; assay: Selectivity ratio of Ki for rat striatal adenosine A1 receptor to Ki for rat recombinant adenosine receptor A2a
[22] = biological target: T8, Adenosine receptor A1 (Rattus norvegicus, UniProt P25099)
T8 sequence (P25099 whole entry): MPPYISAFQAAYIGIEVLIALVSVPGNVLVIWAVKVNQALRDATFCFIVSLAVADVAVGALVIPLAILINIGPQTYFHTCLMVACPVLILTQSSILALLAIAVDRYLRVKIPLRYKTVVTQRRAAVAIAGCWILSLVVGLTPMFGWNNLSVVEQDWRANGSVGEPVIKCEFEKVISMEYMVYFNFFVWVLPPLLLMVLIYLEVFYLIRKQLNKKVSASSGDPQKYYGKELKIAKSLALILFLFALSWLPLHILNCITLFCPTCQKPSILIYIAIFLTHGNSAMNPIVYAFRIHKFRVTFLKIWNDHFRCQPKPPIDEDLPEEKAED

[23] = biological target: T3, Adenosine receptor A2b; remark: listed apart in the source
[24] = biological target: T5, Adenosine receptor A2a; remark: listed apart in the source

T5 sequence (P29274 whole entry): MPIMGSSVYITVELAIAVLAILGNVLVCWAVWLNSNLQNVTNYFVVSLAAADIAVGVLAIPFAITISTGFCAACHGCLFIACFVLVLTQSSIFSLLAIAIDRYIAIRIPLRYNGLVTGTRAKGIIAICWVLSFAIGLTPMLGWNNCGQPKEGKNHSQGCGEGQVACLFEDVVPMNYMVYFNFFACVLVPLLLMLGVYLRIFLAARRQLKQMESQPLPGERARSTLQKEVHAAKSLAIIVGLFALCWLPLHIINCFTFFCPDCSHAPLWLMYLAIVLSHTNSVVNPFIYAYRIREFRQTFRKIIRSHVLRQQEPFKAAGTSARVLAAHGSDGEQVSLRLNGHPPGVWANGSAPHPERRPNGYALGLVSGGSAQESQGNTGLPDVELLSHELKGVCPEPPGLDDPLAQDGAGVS
T4 sequence (P30543 whole entry): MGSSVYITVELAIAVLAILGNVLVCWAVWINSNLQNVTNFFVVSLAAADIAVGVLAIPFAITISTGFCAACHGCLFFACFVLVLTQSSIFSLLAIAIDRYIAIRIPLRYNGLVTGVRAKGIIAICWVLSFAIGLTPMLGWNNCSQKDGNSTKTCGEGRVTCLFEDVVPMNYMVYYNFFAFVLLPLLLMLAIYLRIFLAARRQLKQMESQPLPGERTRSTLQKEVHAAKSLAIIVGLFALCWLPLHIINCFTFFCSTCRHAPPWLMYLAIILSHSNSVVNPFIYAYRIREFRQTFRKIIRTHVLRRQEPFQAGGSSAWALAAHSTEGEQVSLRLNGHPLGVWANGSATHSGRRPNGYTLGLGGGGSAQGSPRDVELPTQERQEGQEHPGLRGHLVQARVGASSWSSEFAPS

- Ratio Ki [1]: 16
- Ki [2]: 192 nM
SMILES: CC(=O)CCc1nc(N)c2nc(-n3nccn3)n(C)c2n1

- Ki [3]: > 10000 nM
SMILES: Nc1nc(NCCc2ccc(O)cc2)nc2nc(-c3ccco3)nn12 [ZM-241385]

SMILES: COC(=O)Nc1cc2c(-c3ccccc3)ccc(OC)c2o1
- inhibition in vivo at 10 mg/kg [4]: 86%

- EC50 [5]: 10000 nM
- Ki [6]: 10000 nM
SMILES: Nc1nc(OCCc2ccc(Cl)cc2)nc2c1ncn2[C@@H]1O[C@H](CO)[C@@H](O)[C@H]1O [SONEDENOSON]

- Ki [3]: > 3000 nM
SMILES: CCn1c(=O)c2c(nc(/C=C/c3ccc(OC)c(OC)c3)n2C)n(CC)c1=O [ISTRADEFYLLINE]

SMILES: Cc1cc(Cn2nnc3c(-c4ccco4)nc(N)nc32)ccc1N [VIPADENANT]
- minimal effective dose [7]: 0.1 mg/kg

SMILES: Cn1c(=O)c2c(ncn2C)n(C)c1=O [CAFFEINE]
- inhibition in vivo at 3 mg/kg [8]: 35%
- inhibition in vivo at 3 mg/kg [9]: 14%

- Ratio Ki [1]: 99
- Ki [2]: 1400 nM
SMILES: Nc1nc2c(cnn2CCN2CCOCC2)c2nn(Cc3cccc(Cl)c3)c(=O)n12

SMILES: Nc1nc2ccc(Cl)cc2c2nc(-c3ccco3)nn12 [CGS-15943]
- Ki [10]: 0.4 nM

- Ki [11]: 10000 nM
- EC50 [5]: 10000 nM
- Ki [6]: 3770 nM
SMILES: CNC(=O)c1cnn(-c2nc(N)c3ncn([C@@H]4O[C@H](CO)[C@@H](O)[C@H]4O)c3n2)c1 [REGADENOSON ANHYDROUS]

- inhibition [12]: 39%
- inhibition [13]: 81%
- inhibition [14]: 81%
- inhibition [15]: 98%
- inhibition [16]: 37%
- inhibition [17]: 82%
SMILES: COc1ccc(-c2ccccc2)c2cc(C(=O)N3CCOCC3)oc12
- inhibition in vivo at 10 mg/kg [4]: 78%

- Ratio Ki [1]: 617
- Ki [2]: 10000 nM
SMILES: CC1CN(c2nnc(N)nc2-c2ccccc2)CC(C)O1 (stereo unspecified)

- Ki [18]: 100 nM
SMILES: Nc1nc(Nc2ccccc2)nc2c1ncn2[C@@H]1O[C@H](CO)[C@@H](O)[C@H]1O

SMILES: Nc1nc(-c2ccccc2)c2c(n1)-c1cc(OCCN3CCOCC3)ccc1C2=O
- ED50 [19]: 0.3 mg/kg

- Ratio Ki [1]: 420
- Ki [20]: 5 nM
- Ki [2]: 2100 nM
SMILES: COc1cnc(N2CCOCC2)c2sc(NC(=O)c3ccc(F)cc3)nc12

- Ratio Ki [21]: 63
- Ki [22]: > 250 nM
SMILES: Nc1nc(NC[C@H]2CCCN2Cc2ccnc(Cl)c2)nc2nc(-c3ccco3)nn12

- Ratio Ki [1]: 222
SMILES: Cc1cc(C)n(-c2cc(NC(=O)CN3CCN(C)CC3)nc(-c3nccs3)n2)n1

SMILES: COc1ccc(N2CCOCC2)c2cc(C(=O)Nc3ccncc3)oc12
- inhibition in vivo at 10 mg/kg [4]: 76%

- Ki [23]: 112 nM
- Ki [3]: 1470 nM
SMILES: Nc1nc(-c2ccco2)c2ncn(C(=O)NCc3ccccc3)c2n1

- Ki [11]: 19 nM
- Ki [24]: 180 nM
- Ki [6]: 1.39 nM
SMILES: Nc1nc(Cl)nc2c1ncn2[C@@H]1O[C@H](CO)[C@@H](O)[C@H]1O

- Ratio Ki [1]: 12
- Ki [2]: 79.2 nM
- Ki [3]: > 10000 nM
SMILES: CCCCc1nc(N)c2nc(-n3nccn3)n(C)c2n1 [ST1535]

- Ratio Ki [1]: 269
- Ki [2]: 1400 nM
SMILES: CN(C)CCn1ncc2c1nc(N)n1c(=O)n(Cc3cccc(Cl)c3)nc21

- Ratio Ki [1]: 245
- Ki [2]: 10000 nM
SMILES: CC1(C)CCCN(c2nnc(N)nc2-c2ccccc2)C1
